# Measurements as given in patent publication US20080200491A1, “1,2-Dihydro-Spiro[3H-Indole-3,4'-Piperidine] Compounds, as Modulators of the Mas Receptor Novel” (priority 2005, published 2008).
# “Also recorded” adds a separate entry of the source.
# Assays:
# [1] = tested on: isolated rat hearts; assay: Ischemia-reperfusion assay in isolated adult rat hearts (Langendorff apparatus)
# Method: Male Sprague-Dawley rats (300-350 g body weight) were anesthetized with Inactin (100 mg/kg IP) 20 minutes prior to surgery. The chest wall was opened and the heart was rapidly excised and immediately placed into ice-cold Krebs-Henseleit (KH) buffer (118 mM NaCl, 4.7 mM KCl, 1.2 mM MgSO4, 1.2 mM KH2PO4, […], 25 mM NaHCO3, 11 mM glucose, 1 mM pyruvate, and 0.005 mM EDTA) to produce cardiac arrest. The aorta was then cannulated and the heart retrogradely perfused with KH buffer maintained at 37° C. in a reservoir bubbled with 95% O2/5% CO2 (pH7.4) on the Langendorff apparatus at a constant pressure of 70 mmHg. Myocardial temperature was maintained at 37° C. by partially submerging the heart into a water-jacketed chamber filled with KH buffer. A water filled latex balloon attached to a metal cannula and inserted into the left ventricle via the mitral valve and connected to a pressure transducer (Powerlab, ADInstruments, Inc) was used for measurement of left ventricular pressure. The balloon was initially inflated to an end-diastolic pressure of 10 mmHg. After allowing 20 minutes for equilibration, rat hearts were subjected to 10 minutes of KH buffer containing drug or vehicle followed by 30 minutes of ischemia followed by 30 minutes of reperfusion. The difference between peak-systolic and end diastolic pressures, or left ventricular developed pressure (LVDP) was calculated as an index of contractile function and measured just prior to ischemia and at 10, and 30 minutes of reperfusion. Percent recovery of LV function [(LVDP post reperfusion/LVDP pre-ischemia)[…]] was averaged across 5 vehicle and 4 drug treated hearts and one-way anova with Newman-Keuls Multiple Comparison Test was used to determine statistical significance.
# Epicardial electrogram recordings were also taken from the isolated rat hearts used in FIGS. 2 and 3. Briefly, silver wire electrodes were placed on the right atrium and the apex of the left ventricle, allowing an epicardial electrogram to be recorded. Premature ventricular contraction (PVC), ventricular tachycardia and ventricular fibrillation were common arrhythmias observed during reperfusion following 30 minutes of global ischemia. Hearts were considered positive for reperfusion arrhythmias if ventricular arrhythmias were sustained for greater than 30 seconds during the first 5 minutes of reperfusion.
# [2] = tested on: blood pressure in rats; assay: Blood pressure measurement in rats by telemetry; format: in vivo, rat; conditions: conscious rats, IP injection, FIG. 5
# Method: Cardiac parameters were measured by small transmitting devices, (Data Sciences PhysioTel Telemetry devices), implanted in rats. The implanted transmitting devices were used to measure blood pressure in freely moving conscious animals. There are no external connections or tethering devices that can inhibit animal movement and induce unnecessary stress, which can affect the outcome of a study.
# This procedure was performed under modified aseptic conditions. Rats were anesthetized with Isoflurane gas that ranged in concentration from 1.5-2.0%. A cardiac telemetry device was implanted into the peritoneal cavity with a pressure sensing catheter situated no more than 2 cm inside the descending aorta. This was accomplished as follows: The rat was shaved and the incision site was prepared with an iodine solution. The rat was then placed on a heating pad to maintain a constant body temp of 38+/−0.5° C., and covered with a sterile drape. A 6 cm midline abdominal incision was made to provide access to the implantation area. […] The rats were monitored for 7 days to ensure proper recovery.
# On the test day, injections with either vehicle or with test compound were administered via IP injection in volumes of ˜250 μl. Animals were monitored with a resolution of approximately one measurement/min for 60 minutes before injection of vehicle or compound and for about 120 minutes after injection.
# [3] = target: T1, Mas receptor (Homo sapiens, UniProt P04201); assay: Mas receptor IP3 assay (inverse agonist assay); format: cell-based; set-up: expressed in transfected cells; conditions: for IC50: n = 2
# T1 sequence (P04201 1-325): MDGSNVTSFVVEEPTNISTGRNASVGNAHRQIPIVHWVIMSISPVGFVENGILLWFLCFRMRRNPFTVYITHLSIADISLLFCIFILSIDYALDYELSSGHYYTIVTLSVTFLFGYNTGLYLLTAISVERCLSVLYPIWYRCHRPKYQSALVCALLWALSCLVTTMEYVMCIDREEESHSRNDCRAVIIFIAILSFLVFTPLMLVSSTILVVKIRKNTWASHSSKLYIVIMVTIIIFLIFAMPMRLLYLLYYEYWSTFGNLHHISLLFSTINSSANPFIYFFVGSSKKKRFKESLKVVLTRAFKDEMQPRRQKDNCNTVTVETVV
# Method: The Mas receptor IP3 assay was performed using a mammalian cell line (HEK293) which was transfected with a plasmid containing the human Mas receptor and selected for stable expression of the receptor. […] To achieve this, Mas receptor expression levels were increased by transiently transfecting the same Mas receptor stable cell line with additional human Mas receptor plasmid DNA following standard procedures. These cells were used in the Mas receptor IP3 assay approximately 24 hours post-transfection.
# Cells were split into 96-well plates (50,000 cells/well) and allowed to attach for a period of 6 hours. The growth medium was then replaced with medium supplemented with 4 μCi/mL [3H]myo-inositol (100 μl; Perkin Elmer Life Sciences) and the cells were allowed to incubate for approximately 20 hours. Test compounds were serially diluted in inositol-free media containing 10 mM LiCl. The media in the plates was removed by aspiration, replaced with these test compound solutions and incubated at 37° C. for 1 hour.
# Following this incubation, the media was removed by aspiration and replaced with buffer containing 0.1M formic acid. The plates were then frozen overnight at −80° C. to achieve complete cell lysis.
# The following day, the assay plates were thawed at room temperature. The thawed contents were then transferred to 96-well filter plates (Nillipore, Multiscreen) pre-loaded with resin (Biorad, AG1-X8 100-200 mesh, formate form). The plate was filtered using a vacuum manifold and the resin was washed multiple times with water. An elution buffer was then applied (200 μl, 0.2M Ammonium formate/0.1M formic acid) and the resulting eluent was collected, under vacuum, in a 96-well collection plate. Aliquots of the eluent (80 μl) were transferred to filter plates (Whatman, Unifilter GF/C) and dried in a 45° C. oven overnight. Dried plates were counted on a scintillation counter following the addition of an appropriate scintillant (Perkin Elmer Life Sciences, Optiphase Supermix or Hi-Safe 3).
# [4] = tested on: isolated rat aortic rings; assay: Angiotensin II induced vasoconstriction in isolated rat aortic rings; conditions: pretreatment 15 min; Angiotensin II 1 uM; same doses also tested against norepinephrine 1 uM; FIG. 6
# Method: Sprague-Dawley rats (250-300 g) were euthanized via CO2 chamber. […] The excess adventitial tissue was carefully removed and the endothelium was sloughed off by rinsing with buffer via syringe. The vessel was then cut into 2-3 mm rings and mounted on wire stirrups connected to force transducers (World Precision Instruments, Myobath 4 channel system, FORT-10) to record changes in isometric force. The aortic rings were then placed in 15 mL organ baths filled with buffer at 37° C. with continuous aeration (95% O2 and 5% CO2)
# The rings were left to equilibrate in buffer for 30 minutes. A resting tension of 4 g was applied and the rings were allowed to equilibrate for 1 hour. During the equilibration period, the buffer was changed every 30 minutes. After equilibration was complete, the aortic rings were tested for viability and maximal contraction response by addition of 50 mM KCl.
# Aortic rings were contracted with AngiotensinII (1 uM) Sigma, St Louis, Mo. and the isometric force recorded. […] The aortic rings were then treated with the agonist, AngiotensinII (1 uM), and the change in isometric force was recorded. […]
# Data for each group (Compound S75 concentration) was from n=4 aortic rings. Change in aortic tension after AngiotensinII treatment was expressed as a percentage to 50 mM KCL in order to normalize tension for each aortic ring.
# [5] = target: Mas receptor; conditions: Santos et al., PNAS 2003; cited from earlier work
# [6] = target: T1, Mas receptor; conditions: Dong et al., Cell 2001; cited from earlier work
molecule,measurement,setting,value
"C=CCN1CCC2(CC1)CN(C(=O)c1cccc(F)c1F)c1ccc(F)cc12 [Compound S75, 1′-(allyl)-1,2-dihydro-5-fluoro-1-(2,3-difluoro-benzoyl)-spiro[3H-indole-3,4′-piperidine]]",left ventricle function after reperfusion compared to vehicle treatment,"[1]; 30 μM, 30 min ischemia, 30 min reperfusion, FIG. 2",significant increase in left ventricle function
same,level of left ventricle function after reperfusion versus level before ischemia,"[1]; 30 μM, FIG. 2",comparable to the level before ischemia
same,ischemic contracture: end diastolic pressure (EDP) compared to vehicle treatment,"[1]; 30 μM, FIG. 3",significant decrease in end diastolic pressure
same,early reperfusion arrhythmias,"[1]; ventricular arrhythmias sustained > 30 seconds during first 5 minutes of reperfusion, FIG. 4",none of the four hearts
same,change in blood pressure after treatment,[2],does not raise blood pressure; also recorded: did not result in a significant change in blood pressure
same,mode of action at the Mas receptor,[3]; FIG. 1,inverse agonist
same,inhibition of angiotensin II induced vasoconstriction,[4],potent and selective inhibition
"angiotensin II: known vasoconstrictor peptide, control compound in the blood pressure study (DRVYIHPF; Angiotensin-2; UniProt P01019 25-32, looked up) [reference compound]",change in blood pressure after treatment,[2],significant increase in blood pressure
"CC(C)c1ccc2c(c1)C1(CCN(CCC(F)(F)F)CC1)CN2C(=O)c1c(F)cccc1F [Compound 1, 1′-(3,3,3-trifluoro-propyl)-1,2-dihydro-5-isopropyl-1-(2,6-difluoro-benzoyl)-spiro[3H-indole-3,4′-piperidine]]",IC50,[3],28.6 nM
"CCCN1CCC2(CC1)CN(C(=O)c1c(F)cccc1F)c1ccc(C(C)(C)C)cc12 [Compound 4, 1′-(propyl)-1,2-dihydro-5-tert-butyl-1-(2,6-difluoro-benzoyl)-spiro[3H-indole-3,4′-piperidine]]",IC50,[3],35.1 nM
"DRVYIHP [Ang (1-7), H-Asp-Arg-Val-Tyr-Ile-His-Pro-OH]",Kd,[5],0.33 nM
"a peptide called NPFF, reported to bind the Mas receptor weakly and NPFF1/NPFF2 with high affinity",EC50,[6],~400 nM
